The source of these data is paper PMC6934184, “Selective DNA-PKcs inhibition extends the therapeutic index of localized radiotherapy and chemotherapy” (The Journal of Clinical Investigation, 2019).

A word on the inhibition: it is the relative decrease from the control value, in per cent.

This experiment deals with T1, SGK (SGK1) (Homo sapiens, UniProt O00141).
T1 construct: purchased Thermo Fisher Scientific (Life Technologies) SelectScreen
In words: SelectScreen Z'LYTE. It is filed as biochemical. In short, it runs like this:
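Percent values come from Thermo SelectScreen profiling of NU5455, combining activity and binding assays. CSF1R was run in Z'LYTE format at Km app ATP, and CAMK1 in Adapta format with ATP listed at 10.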

SMILES strings stand for the structures.

T1 sequence (O00141 whole entry): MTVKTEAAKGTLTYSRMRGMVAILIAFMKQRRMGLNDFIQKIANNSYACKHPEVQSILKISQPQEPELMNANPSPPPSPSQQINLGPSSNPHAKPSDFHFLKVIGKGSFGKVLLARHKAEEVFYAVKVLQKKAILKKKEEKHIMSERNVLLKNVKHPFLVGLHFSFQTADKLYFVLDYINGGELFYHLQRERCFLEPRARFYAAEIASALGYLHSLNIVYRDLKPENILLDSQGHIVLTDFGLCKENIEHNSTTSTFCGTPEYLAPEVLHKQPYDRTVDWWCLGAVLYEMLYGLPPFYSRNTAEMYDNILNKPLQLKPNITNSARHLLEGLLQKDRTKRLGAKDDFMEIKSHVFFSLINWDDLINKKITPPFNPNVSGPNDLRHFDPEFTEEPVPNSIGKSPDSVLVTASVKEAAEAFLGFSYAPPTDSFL

In turn, `CN(C(=O)CN1CCOCC1)c1ccc2sc3c(-c4cccc5c(=O)cc(N6CC7CCC(C6)O7)oc45)cccc3c2c1` [NU5455] had an inhibition at 1 µM of 8.5%.
